{
  "source": "paper PMC7640639",
  "about": "(Journal of medicinal chemistry, 2019)",
  "key": {"HT-22 cells": {"system": "HT-22 cells", "assay": "Neuroprotection against glutamate-induced oxidative stress in HT-22 cells", "assay_type": "cell-based, mouse"}, "liver": {"system": "liver", "details": "mouse, in vivo, ip, 3 mg/kg"}, "hCB1R": {"biological_target": "hCB1R (Homo sapiens, UniProt P21554)", "sequence (P21554 whole entry)": "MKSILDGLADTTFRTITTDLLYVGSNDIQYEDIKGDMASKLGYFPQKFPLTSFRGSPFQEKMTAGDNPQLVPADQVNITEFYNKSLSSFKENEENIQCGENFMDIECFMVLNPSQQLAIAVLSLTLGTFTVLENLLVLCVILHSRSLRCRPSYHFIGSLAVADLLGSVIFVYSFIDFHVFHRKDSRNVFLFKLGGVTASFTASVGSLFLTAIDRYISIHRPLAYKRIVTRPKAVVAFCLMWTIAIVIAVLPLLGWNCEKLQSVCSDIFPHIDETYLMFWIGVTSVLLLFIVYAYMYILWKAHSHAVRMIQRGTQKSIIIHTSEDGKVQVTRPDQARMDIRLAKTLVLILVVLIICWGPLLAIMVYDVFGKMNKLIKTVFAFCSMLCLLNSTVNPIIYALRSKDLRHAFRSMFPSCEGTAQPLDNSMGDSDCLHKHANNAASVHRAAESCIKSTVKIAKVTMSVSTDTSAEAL", "details": "CHO-K1 cells, hCB1 and Gαq16"}, "hAChE": {"biological_target": "hAChE (Homo sapiens, UniProt P22303)", "sequence (P22303 32-614)": "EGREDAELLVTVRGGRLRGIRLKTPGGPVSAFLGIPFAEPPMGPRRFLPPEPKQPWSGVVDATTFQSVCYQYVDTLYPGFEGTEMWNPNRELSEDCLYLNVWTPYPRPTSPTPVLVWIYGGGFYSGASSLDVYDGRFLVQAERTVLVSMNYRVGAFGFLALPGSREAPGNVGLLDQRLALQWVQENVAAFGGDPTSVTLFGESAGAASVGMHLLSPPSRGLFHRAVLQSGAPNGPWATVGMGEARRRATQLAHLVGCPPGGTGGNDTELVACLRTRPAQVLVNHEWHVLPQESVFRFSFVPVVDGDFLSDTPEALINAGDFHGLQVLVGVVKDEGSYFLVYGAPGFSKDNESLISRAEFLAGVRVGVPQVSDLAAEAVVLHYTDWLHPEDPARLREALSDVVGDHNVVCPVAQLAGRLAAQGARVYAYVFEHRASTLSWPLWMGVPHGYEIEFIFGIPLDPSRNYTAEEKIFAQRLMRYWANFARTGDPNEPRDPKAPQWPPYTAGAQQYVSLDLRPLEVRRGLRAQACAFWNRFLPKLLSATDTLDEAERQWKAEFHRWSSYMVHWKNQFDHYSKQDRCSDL", "assay_type": "biochemical"}, "[1]": {"biological_target": "hAChE-induced Aβ40 aggregation (Homo sapiens, UniProt P22303)", "sequence (P22303 32-614)": "as above", "assay_type": "biochemical", "details": "[I] = 100 μM; Aβ40/hAChE 100:1"}, "Aβ42": {"biological_target": "Aβ42 (Homo sapiens, UniProt P05067)", "sequence (P05067 672-713)": "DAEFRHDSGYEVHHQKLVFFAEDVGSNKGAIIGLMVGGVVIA", "assay": "Inhibition of Aβ42 self-aggregation, thioflavin T fluorescence assay", "assay_type": "biochemical", "details": "50 μM inhibitor, 50 μM Aβ42 (1:1)"}, "hCB2R [2]": {"biological_target": "T1, hCB2R (Homo sapiens, UniProt P34972)", "T1 sequence (P34972 whole entry)": "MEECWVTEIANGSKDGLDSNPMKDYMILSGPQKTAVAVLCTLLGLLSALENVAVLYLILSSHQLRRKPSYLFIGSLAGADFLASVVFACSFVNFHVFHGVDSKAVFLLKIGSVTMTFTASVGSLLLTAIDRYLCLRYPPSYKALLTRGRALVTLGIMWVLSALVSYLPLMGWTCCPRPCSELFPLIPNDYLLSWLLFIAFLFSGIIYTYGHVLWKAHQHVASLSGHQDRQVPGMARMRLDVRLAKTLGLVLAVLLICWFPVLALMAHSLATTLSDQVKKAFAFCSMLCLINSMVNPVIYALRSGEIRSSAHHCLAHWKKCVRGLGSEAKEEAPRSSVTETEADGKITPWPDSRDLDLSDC", "details": "calcium mobilization"}, "[3]": {"system": "Aβ25–35-induced learning impairments in mice", "details": "mouse, in vivo, ip"}, "[4]": {"system": "U266 myeloma cells (cAMP-regulated MIF and STAT-3 genes, hCB2R)"}, "[5]": {"system": "murine microglial cell line N9"}, "μ-opioid receptor (MOR)": {"biological_target": "μ-opioid receptor (MOR) (Homo sapiens, UniProt P35372)", "sequence (P35372 whole entry)": "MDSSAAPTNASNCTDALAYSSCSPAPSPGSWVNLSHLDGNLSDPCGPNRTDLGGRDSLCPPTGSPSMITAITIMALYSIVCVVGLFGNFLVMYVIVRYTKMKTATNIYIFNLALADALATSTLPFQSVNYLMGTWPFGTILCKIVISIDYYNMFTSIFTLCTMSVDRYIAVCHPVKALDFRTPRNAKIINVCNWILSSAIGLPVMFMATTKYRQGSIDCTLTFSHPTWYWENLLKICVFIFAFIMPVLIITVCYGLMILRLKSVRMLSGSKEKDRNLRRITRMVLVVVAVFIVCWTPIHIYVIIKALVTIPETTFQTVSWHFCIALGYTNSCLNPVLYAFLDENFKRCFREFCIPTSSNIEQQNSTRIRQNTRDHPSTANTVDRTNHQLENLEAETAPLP"}, "hCB2R [6]": {"biological_target": "T1, hCB2R"}, "[7]": {"details": "HT-22 cells, 5 mM glutamate, 24 h, MTT"}},
  "note": "Read-outs that look alike come from different tables or passages of the source.",
  "data": [
    {"compound": "CCOc1ccc(Cc2nc3cc(C(=O)N(CC)CC)ccc3n2CCCCCNc2c3c(nc4ccccc24)CCCC3)cc1", "note": "[3d, 2-(4-Ethoxybenzyl)-N,N-diethyl-1-(5-((1,2,3,4-tetrahydroacridin-9-yl)amino)pentyl)-1H-benzo[d]imidazole-5-carboxamide]", "values": [
      {"measurement": "neuroprotective behavior (in words)", "setting": "HT-22 cells", "result": "none"},
      {"measurement": "necrosis positive/specimen", "setting": "liver", "result": "5/6"},
      {"measurement": "necrosis reported area %", "setting": "liver", "result": "5–15%"}
    ]},
    {"compound": "CCOc1ccc(Cc2nc3cc(C(=O)N(CC)CC)ccc3n2CCCCCCNc2c3c(nc4ccccc24)CCCC3)cc1", "note": "[3e, 2-(4-Ethoxybenzyl)-N,N-diethyl-1-(6-((1,2,3,4-tetrahydroacndin-9-yl)amino)hexyl)-1H-benzo[d]imidazole-5-carboxamide]", "values": [
      {"measurement": "neuroprotective behavior (in words)", "setting": "HT-22 cells; [7]", "result": "low neuroprotective behavior"},
      {"measurement": "activity at hCB1R (in words)", "setting": "hCB1R", "result": "devoid of activity"},
      {"measurement": "Ki′ (inhibition constant for the enzyme-substrate-inhibitor complex), in words", "setting": "hAChE", "result": "submicromolar range"},
      {"measurement": "inhibition of hAChE-induced Aβ40 aggregation (in words)", "setting": "[1]", "result": "significantly reduce the proaggregating action of hAChE"},
      {"measurement": "inhibition of Aβ42 self-aggregation (in words)", "setting": "Aβ42", "result": "strongly inhibited"},
      {"measurement": "behaviour at hCB2R (in words)", "setting": "hCB2R [2]", "result": "partial agonists"},
      {"measurement": "most effective dose, complete prevention of Aβ25–35 impairments in both tests", "setting": "[3]", "result": 0.3, "unit": "mg/kg"},
      {"measurement": "MIF and STAT-3 gene expression compared to vehicle", "setting": "[4]", "result": "decreased expression of both genes"}
    ]},
    {"compound": "CCOc1ccc(Cc2nc3cc(C(=O)NCCNc4c5c(nc6ccccc46)CCCC5)ccc3n2CCC(C)C)cc1", "note": "[4a, 2-(4-Ethoxybenzyl)-1-isopentyl-N-(2-((1,2,3,4-tetrahydroacridin-9-yl)amino)ethyl)-1H-benzo[d]imidazole-5-carboxamide]", "values": [
      {"measurement": "IL1β release and iNOS expression (M1 markers)", "setting": "[5]", "result": "significantly decrease"},
      {"measurement": "NO release / nitrite accumulation", "setting": "[5]", "result": "reduced"},
      {"measurement": "TREM2 and TGFβ2 expression (M2 markers)", "setting": "[5]", "result": "not reduced"},
      {"measurement": "affinity at the μ-opioid receptor (in words)", "setting": "μ-opioid receptor (MOR)", "result": "significant affinity"},
      {"measurement": "most effective dose, complete prevention of Aβ25–35 impairments in both tests", "setting": "[3]", "result": 1, "unit": "mg/kg"},
      {"measurement": "necrosis positive/specimen", "setting": "liver", "result": "6/9"},
      {"measurement": "necrosis reported area %", "setting": "liver", "result": "5–10%"}
    ]},
    {"compound": "CCOc1ccc(Cc2nc3cc(C(=O)NCCCNc4c5c(nc6ccccc46)CCCC5)ccc3n2CCC(C)C)cc1", "note": "[4b, 2-(4-Ethoxybenzyl)-1-isopentyl-N-(3-((1,2,3,4-tetrahydroacridin-9-yl)amino)propyl)-1H-benzo[d]imidazole-5-carboxamide]", "values": [
      {"measurement": "inhibition of Aβ42 self-aggregation (in words)", "setting": "Aβ42", "result": "quite weak"}
    ]},
    {"compound": "CCOc1ccc(Cc2nc3cc(C(=O)NCCCCNc4c5c(nc6ccccc46)CCCC5)ccc3n2CCC(C)C)cc1", "note": "[4c, 2-(4-Ethoxybenzyl)-1-isopentyl-N-(4-((1,2,3,4-tetrahydroacridin-9-yl)amino)butyl)-1H-benzo[d]imidazole-5-carboxamide]", "values": [
      {"measurement": "activity at hCB1R (in words)", "setting": "hCB1R", "result": "devoid of activity"},
      {"measurement": "behaviour at hCB2R (in words)", "setting": "hCB2R [2]", "result": "partial agonists"},
      {"measurement": "MIF and STAT-3 gene expression compared to vehicle", "setting": "[4]", "result": "decreased expression of both genes"}
    ]},
    {"compound": "CCOc1ccc(Cc2nc3cc(C(=O)NCCCCCCNc4c5c(nc6ccccc46)CCCC5)ccc3n2CCC(C)C)cc1", "note": "[4e, 2-(4-Ethoxybenzyl)-1-isopentyl-N-(6-((1,2,3,4-tetrahydroacridin-9-yl)amino)hexyl)-1H-benzo[d]imidazole-5-carboxamide]", "values": [
      {"measurement": "affinity at the μ-opioid receptor (in words)", "setting": "μ-opioid receptor (MOR)", "result": "significant affinity"}
    ]},
    {"compound": "Cc1c(C(=O)NN2CCCCC2)nn(-c2ccc(Cl)cc2Cl)c1-c1ccc(Cl)cc1", "note": "[Rimonabant]", "values": [
      {"measurement": "[3H]CP 55,940 displ. @10 μM hCB2R", "setting": "hCB2R [6]", "result": 4, "unit": "%"}
    ]},
    {"compound": "CCOc1ccc(Cc2nc3cc(C(=O)NCCSSCCNc4c5c(nc6ccccc46)CCCC5)ccc3n2CCC(C)C)cc1", "note": "[compound 8, 2-(4-Ethoxybenzyl)-1-isopentyl-N-(2-((2-((1,2,3,4-tetrahydroacri-din-9-yl)amino)ethyl)disulfaneyl)ethyl)-1H-benzo[d]imidazole-5-carboxamide]", "values": [
      {"measurement": "neuroprotection at 5 μM (in words)", "setting": "HT-22 cells; HT-22 cells, 5 mM glutamate, 5 μM compound", "result": "neuroprotection comparable to the positive control quercetin at 25 μM"},
      {"measurement": "concentration showing neuroprotection", "setting": "HT-22 cells; [7]", "result": "≥ 1", "unit": "µM"},
      {"measurement": "inhibition of hAChE-induced Aβ40 aggregation (in words)", "setting": "[1]", "result": "not able to significantly inhibit"},
      {"measurement": "inhibition of Aβ42 self-aggregation (in words)", "setting": "Aβ42", "result": "strongly inhibited"},
      {"measurement": "most effective dose, complete prevention of Aβ25–35 impairments in both tests", "setting": "[3]", "result": 0.3, "unit": "mg/kg"},
      {"measurement": "necrosis positive/specimen", "setting": "liver", "result": "8/11"},
      {"measurement": "necrosis reported area %", "setting": "liver", "result": "5–50%"}
    ]}
  ]
}
